pIC50: −log10 of the molar value. Where two headings read alike, the source gives them in different places.
Legend:
α-Glucosidase [1] = target: T1, α-Glucosidase (Oryza sativa subsp. japonica, UniProt Q653V7); assay: glycosidase inhibition assay, rice α-glucosidase; assay type: biochemical; details: for inhibition at 100 µM: α-Glucosidase, Rice
T1 construct: purchased Sigma-Aldrich Chemical Co
Procedure: (§1) With rat intestinal maltase as an exception, other enzymes were purchased from Sigma-Aldrich Chemical Co. (St. Louis, Mo. USA). Brush border membranes prepared from rat small intestine according to the method of Kessler et al. were assayed at pH 6.8 for rat intestinal maltase using maltose. The released D-glucose was determined colorimetrically using the Glucose CII-test Wako (Wako Pure Chemical Ind.; Osaka, Japan). Other glycosidase activities were determined using an appropriate p-nitrophenyl glycoside as substrate in a buffer solution at the optimal pH value of each enzyme. The reaction was stopped by adding 400 mM Na2CO3. The released p-nitrophenol was measured spectrometrically at 400 nm.

α-Glucosidase [2] = target: T2, α-Glucosidase (Saccharomyces cerevisiae, UniProt P53341); assay: glycosidase inhibition assay, yeast α-glucosidase; assay type: biochemical; details: for pIC50: α-Glucosidase, Yeast
T2 construct: purchased Sigma-Aldrich Chemical Co
T2 sequence (P53341 whole entry): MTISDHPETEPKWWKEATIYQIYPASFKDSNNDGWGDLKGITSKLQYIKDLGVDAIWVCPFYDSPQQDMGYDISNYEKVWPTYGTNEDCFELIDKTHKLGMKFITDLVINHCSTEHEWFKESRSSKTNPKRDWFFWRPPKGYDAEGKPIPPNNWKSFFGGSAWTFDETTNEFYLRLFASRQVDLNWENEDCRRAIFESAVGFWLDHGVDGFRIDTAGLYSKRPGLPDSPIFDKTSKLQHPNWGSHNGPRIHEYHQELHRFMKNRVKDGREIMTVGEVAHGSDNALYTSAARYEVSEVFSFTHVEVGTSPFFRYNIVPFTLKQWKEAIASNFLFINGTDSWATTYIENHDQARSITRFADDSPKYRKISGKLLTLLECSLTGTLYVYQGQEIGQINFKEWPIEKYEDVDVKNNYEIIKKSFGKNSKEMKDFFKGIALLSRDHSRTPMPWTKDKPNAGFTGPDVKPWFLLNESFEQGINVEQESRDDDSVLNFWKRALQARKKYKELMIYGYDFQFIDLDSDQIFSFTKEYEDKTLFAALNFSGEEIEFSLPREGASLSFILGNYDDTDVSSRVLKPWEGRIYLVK
Procedure: as §1

α,α-Trehalase = target: T3, α,α-Trehalase (Sus scrofa, UniProt I3LIR5); assay: glycosidase inhibition assay, porcine kidney α,α-trehalase; assay type: biochemical
T3 sequence (I3LIR5 24-556): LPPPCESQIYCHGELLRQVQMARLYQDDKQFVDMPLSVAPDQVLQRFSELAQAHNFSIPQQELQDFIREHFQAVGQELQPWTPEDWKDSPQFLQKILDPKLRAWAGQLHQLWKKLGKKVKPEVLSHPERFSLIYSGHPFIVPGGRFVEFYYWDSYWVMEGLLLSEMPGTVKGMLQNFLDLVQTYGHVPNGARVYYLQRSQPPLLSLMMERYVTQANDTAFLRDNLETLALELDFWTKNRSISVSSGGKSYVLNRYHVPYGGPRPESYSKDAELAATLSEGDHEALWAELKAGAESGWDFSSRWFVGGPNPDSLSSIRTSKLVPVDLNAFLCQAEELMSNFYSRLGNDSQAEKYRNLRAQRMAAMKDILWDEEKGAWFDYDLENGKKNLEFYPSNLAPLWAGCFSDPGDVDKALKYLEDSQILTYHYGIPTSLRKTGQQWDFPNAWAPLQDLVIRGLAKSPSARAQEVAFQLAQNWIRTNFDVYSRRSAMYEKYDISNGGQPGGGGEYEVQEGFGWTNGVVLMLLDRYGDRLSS
Procedure: as §1

α-L-Fucosidase = target: T4, α-L-Fucosidase (Bos taurus, UniProt Q2KIM0); assay: glycosidase inhibition assay, bovine kidney α-L-fucosidase; assay type: biochemical
T4 construct: purchased Sigma-Aldrich Chemical Co; host or cells: bovine kidney
T4 sequence (Q2KIM0 23-468): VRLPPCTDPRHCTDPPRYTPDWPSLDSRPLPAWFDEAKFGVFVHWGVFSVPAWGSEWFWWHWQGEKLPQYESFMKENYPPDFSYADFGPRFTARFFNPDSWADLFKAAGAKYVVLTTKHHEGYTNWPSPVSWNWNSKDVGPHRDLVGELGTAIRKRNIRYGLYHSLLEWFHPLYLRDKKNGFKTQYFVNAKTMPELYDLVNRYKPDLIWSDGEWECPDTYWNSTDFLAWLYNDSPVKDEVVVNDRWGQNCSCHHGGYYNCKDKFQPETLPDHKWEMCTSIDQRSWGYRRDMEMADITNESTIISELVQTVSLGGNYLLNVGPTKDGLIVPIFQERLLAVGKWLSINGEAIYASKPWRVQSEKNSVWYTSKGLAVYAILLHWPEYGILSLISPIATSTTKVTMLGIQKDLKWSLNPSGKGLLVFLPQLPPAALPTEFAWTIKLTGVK
Procedure: as §1

β-Glucuronidase = target: T5, β-Glucuronidase (Escherichia coli, UniProt P05804); assay: glycosidase inhibition assay, E. coli β-glucuronidase; assay type: biochemical
T5 construct: purchased Sigma-Aldrich Chemical Co
T5 sequence (P05804 whole entry): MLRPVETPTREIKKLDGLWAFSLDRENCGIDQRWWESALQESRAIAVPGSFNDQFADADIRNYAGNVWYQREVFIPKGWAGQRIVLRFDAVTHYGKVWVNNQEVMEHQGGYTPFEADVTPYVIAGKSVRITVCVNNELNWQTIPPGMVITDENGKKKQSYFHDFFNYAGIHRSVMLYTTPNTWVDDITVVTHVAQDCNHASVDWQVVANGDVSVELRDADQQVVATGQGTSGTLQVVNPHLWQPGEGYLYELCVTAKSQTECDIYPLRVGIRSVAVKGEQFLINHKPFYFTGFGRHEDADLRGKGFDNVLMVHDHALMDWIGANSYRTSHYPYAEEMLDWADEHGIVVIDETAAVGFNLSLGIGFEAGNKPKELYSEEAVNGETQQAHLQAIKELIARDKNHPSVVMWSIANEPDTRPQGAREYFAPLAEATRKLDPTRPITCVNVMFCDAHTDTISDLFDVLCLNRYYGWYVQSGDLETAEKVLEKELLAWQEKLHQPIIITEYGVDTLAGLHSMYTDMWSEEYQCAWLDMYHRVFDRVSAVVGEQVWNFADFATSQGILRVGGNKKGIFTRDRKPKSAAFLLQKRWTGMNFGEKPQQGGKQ
Procedure: as §1

β-Galactosidase [3] = assay: glycosidase inhibition assay, bovine liver β-galactosidase; assay type: biochemical
Procedure: as §1

β-Glucosidase [4] = assay: glycosidase inhibition assay, almond β-glucosidase; assay type: biochemical; details: for inhibition %: at 100 μM
Procedure: as §1

Rat intestinal maltase = assay: rat intestinal maltase inhibition (brush border membranes, maltose); assay type: biochemical; details: for inhibition %: at 100 μM
Procedure: as §1

β-Glucosidase [5] = target: T6, β-Glucosidase (Bos taurus, UniProt F1MNT6); assay: glycosidase inhibition assay, bovine liver β-glucosidase; assay type: biochemical
T6 sequence (F1MNT6 1-469): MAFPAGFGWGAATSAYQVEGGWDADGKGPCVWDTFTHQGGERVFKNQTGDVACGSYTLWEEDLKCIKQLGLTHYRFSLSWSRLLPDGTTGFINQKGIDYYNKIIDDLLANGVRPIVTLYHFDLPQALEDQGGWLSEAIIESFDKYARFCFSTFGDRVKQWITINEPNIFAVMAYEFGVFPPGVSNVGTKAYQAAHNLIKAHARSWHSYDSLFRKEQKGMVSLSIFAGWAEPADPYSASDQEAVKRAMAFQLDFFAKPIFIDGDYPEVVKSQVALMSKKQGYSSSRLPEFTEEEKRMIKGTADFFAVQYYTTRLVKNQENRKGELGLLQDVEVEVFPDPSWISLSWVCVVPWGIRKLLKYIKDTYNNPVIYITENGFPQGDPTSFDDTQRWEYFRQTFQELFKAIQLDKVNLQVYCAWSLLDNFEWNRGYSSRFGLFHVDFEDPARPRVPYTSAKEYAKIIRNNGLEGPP
Procedure: as §1

β-Galactosidase [6] = details: β-galactosidase from bovine liver; natural product isolated by Kusano’s group; cited from earlier work

T1 sequence (Q653V7 34-885): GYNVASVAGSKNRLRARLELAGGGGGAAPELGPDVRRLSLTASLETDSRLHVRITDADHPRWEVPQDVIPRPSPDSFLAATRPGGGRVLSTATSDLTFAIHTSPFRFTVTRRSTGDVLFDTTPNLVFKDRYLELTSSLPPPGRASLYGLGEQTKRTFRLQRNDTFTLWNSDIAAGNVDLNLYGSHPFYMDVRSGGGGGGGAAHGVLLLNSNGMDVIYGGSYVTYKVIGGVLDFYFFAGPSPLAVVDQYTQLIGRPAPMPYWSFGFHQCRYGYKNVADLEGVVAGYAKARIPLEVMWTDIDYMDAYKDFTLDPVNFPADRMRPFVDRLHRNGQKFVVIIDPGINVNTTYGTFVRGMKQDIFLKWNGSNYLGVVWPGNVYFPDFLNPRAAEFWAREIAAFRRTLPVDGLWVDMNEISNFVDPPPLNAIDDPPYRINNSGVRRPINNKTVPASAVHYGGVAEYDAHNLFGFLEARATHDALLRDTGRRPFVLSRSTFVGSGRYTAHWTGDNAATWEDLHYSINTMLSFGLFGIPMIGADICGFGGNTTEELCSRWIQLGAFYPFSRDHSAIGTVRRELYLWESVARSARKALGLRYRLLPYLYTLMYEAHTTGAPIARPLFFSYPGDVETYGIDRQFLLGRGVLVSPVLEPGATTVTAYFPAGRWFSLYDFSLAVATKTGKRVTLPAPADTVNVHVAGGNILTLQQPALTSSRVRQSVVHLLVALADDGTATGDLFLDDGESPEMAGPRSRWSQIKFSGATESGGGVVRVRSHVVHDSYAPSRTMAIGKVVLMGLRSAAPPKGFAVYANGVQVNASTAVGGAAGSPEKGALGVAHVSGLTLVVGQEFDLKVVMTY

Row | Structure (SMILES) | pIC50 (α-Glucosidase [1]) | inhibition at 100 µM (α-Glucosidase [1]) | inhibition at 100 µM (α-Glucosidase [2]) | pIC50 (α-Glucosidase [2]) | inhibition at 100 µM (α,α-Trehalase) | pIC50 (α-L-Fucosidase) | inhibition at 100 µM (α-L-Fucosidase) | pIC50 (β-Glucuronidase) | pIC50 (β-Galactosidase [3]) | pIC50 (β-Glucosidase [4]) | inhibition % (β-Glucosidase [4]) | pIC50 (Rat intestinal maltase) | inhibition % (Rat intestinal maltase) | inhibition at 100 µM (β-Glucuronidase) | inhibition at 100 µM (β-Glucosidase [5]) | pIC50 (β-Galactosidase [6])
1 | OCCC[C@@H](O)CCCCCCCCC[C@H]1N[C@@H](CO)[C@@H](O)[C@@H]1O [2-epi-3, (2S,3R,4R,5R)-2-hydroxymethyl-3,4-dihydroxyl-5-((10R)-10,13-(dihydroxyl)dec-1-yl) pyrrolidine] | < 4.00 | 5.6% | 1.6% | < 4.00 | 0% | < 4.00 | 4.3% | 4.14 | 5.13 | < 4.00 | 8.6% | < 4.00 | 16.8% | – | – | –
2 | OCCC[C@H](O)CCCCCCCCC[C@@H]1N[C@@H](CO)[C@H](O)[C@H]1O [ent-3, (2S,3S,4S,5S)-2-hydroxymethyl-3,4-dihydroxyl-5-((10S)-10,13-(dihydroxyl)dec-1-yl) pyrrolidine] | 5.92 | – | 1.9% | < 4.00 | 2.1% | < 4.00 | 0% | < 4.00 | 4.30 | < 4.00 | 9.6% | 6.54 | – | 44.3% | 46.5% | –
3 | OCCC[C@@H](O)CCCCCCCCC[C@@H]1N[C@@H](CO)[C@H](O)[C@H]1O [ent-10’-epi-3] | 5.89 | – | 1.9% | < 4.00 | 0% | < 4.00 | 6.1% | < 4.00 | 5.05 | < 4.00 | 8.0% | – | – | 36.2% | – | –
4 | OCCC[C@@H](O)CCCCCCCCC[C@@H]1N[C@@H](CO)[C@@H](O)[C@H]1O [ent-3,10-di-epi-3] | < 4.00 | 9.5% | 6.6% | < 4.00 | 3.8% | 4.01 | – | 4.38 | 4.51 | < 4.00 | 7.3% | 4.08 | – | – | – | –
5 | OCCC[C@@H](O)CCCCCCCCC[C@H]1N[C@H](CO)[C@@H](O)[C@@H]1O [compound 3, (2R,3R,4R,5R)-2-hydroxymethyl-3,4-dihydroxyl-5-((10R)-10,13-(dihydroxyl)dec-1-yl)pyrrolidine] | < 4.00 | 0% | 2.6% | < 4.00 | 0% | < 4.00 | 0% | 4.07 | 5.64 | < 4.00 | 10.0% | < 4.00 | 0% | – | – | 5.09
6 | OCCC[C@H](O)CCCCCCCCC[C@H]1N[C@H](CO)[C@@H](O)[C@@H]1O [10’-epi-3, (2R,3R,4R,5R)-2-hydroxymethyl-3,4-dihydroxyl-5-((10S)-10,13-(dihydroxyl)dec-1-yl) pyrrolidine] | < 4.00 | 0% | 4.6% | < 4.00 | 0% | < 4.00 | 0% | 4.70 | 6.70 | < 4.00 | 29.1% | < 4.00 | 26.4% | – | – | –
7 | OCCCC(O)CCCCCCCCCC1NC(CO)C(O)C1O [2,10-di-epi-3, (2S,3R,4R,5R)-2-hydroxymethyl-3,4-dihydroxyl-5-((10S)-10,13-(dihydroxyl)dec-1-yl) pyrrolidine] | 4.92 | – | 3.2% | < 4.00 | 0% | < 4.00 | 10.8% | 4.10 | 4.89 | < 4.00 | 10.9% | 5.85 | – | – | – | –
8 | OCCC[C@H](O)CCCCCCCCC[C@@H]1N[C@@H](CO)[C@@H](O)[C@H]1O [ent-3-epi-3, (2S,3R,4S,5S)-2-hydroxymethyl-3,4-dihydroxyl-5-((10S)-10,13-(dihydroxyl)dec-1-yl) pyrrolidine] | < 4.00 | 23% | 0% | < 4.00 | 0% | 4.30 | – | < 4.00 | 4.39 | < 4.00 | 4.6% | 4.38 | – | 28.7% | – | –

From article PMC6832352, “Synthesis and Glycosidase Inhibition of Broussonetine M and Its Analogues” (Molecules, 2019)
